Data from patent publication US20150157588A1, “Pharmaceutical Composition Comprising Amino-Phenyl-Acetic Acid Octadec-(Z)-9-enyl Ester and Use Thereof for Treating Tumors” (Yeda Research and Development Co., Ltd., priority 2012, published 2015).

System: Clone D122 of the 3LL mouse Lewis Lung carcinoma
Assay: Lung carcinoma mouse model: 3LL cells in footpad, local growth and mortality from lung metastasis after excision
Format: in vivo
Details: for day of 50% mortality from lung metastasis: 100 μg in PBS subcutaneously twice weekly
Protocol: Clone D122 of the 3LL mouse Lewis Lung carcinoma, a standard model of growth and metastasis, was used. Syngeneic 8-weeks old C57BL/6 male mice were injected into one hind footpad with 50,000 3LL tumor cells. Local growth of the tumor was followed. Tumors that reached the size of 8 mm×8 mm were excised; tumor excision at this stage was known to trigger the growth of lung metastases that eventually killed the mice. This model allows for investigation of the effect of treatment on two phases of the tumor progression: 1) the effect on local growth, as determined by the time it takes for the tumors to reach the size for excision; and 2) the effect on tumor metastasis as measured by the time it takes for death to occur after excision.
Three groups of 12-13 mice each were injected with 3LL tumor cells as described in the Materials and Methods section, and were treated subcutaneously with 100 μg of amino-phenyl-acetic acid octadec-(Z)-9-enyl ester injected twice weekly (every Monday and Thursday) either from day 6 after tumor injection (to investigate the effect on local growth and metastasis) or from the time of excision of the tumor (to investigate the effect on metastasis only), or were injected with PBS as a control. […] Tumors were excised on the same day. Mice treated with PBS or mice treated with amino-phenyl-acetic acid octadec-(Z)-9-enyl ester in PBS only following tumor excision reached excision size beginning on day 25 (white bars). In contrast, mice treated with amino-phenyl-acetic acid octadec-(Z)-9-enyl ester from day 6 following injection (black bars) reached excision size on day 32, and all mice were excised by day 41.
The PBS-treated mice reached 50% mortality on day 50 (triangles); the mice receiving amino-phenyl-acetic acid octadec-(Z)-9-enyl ester in PBS after tumor excision reached 50% mortality only on day 68 (squares); and the mice treated with amino-phenyl-acetic acid octadec-(Z)-9-enyl ester in PBS from day 6 following tumor implantation reached 50% mortality on day 90 (circles).

[1] = 100 μg in PBS subcutaneously twice weekly from day 6 after tumor injection

Compound: CCCCCCCC/C=C\CCCCCCCCOC(=O)C(N)c1ccccc1 (centres unmarked) [amino-phenyl-acetic acid octadec-(Z)-9-enyl ester]
- day after tumor injection on which mice reached excision size (8 mm×8 mm) [1]: 32 days
- day by which all mice were excised [1]: ≤ 41 days
- day of 50% mortality from lung metastasis (from day 6 following tumor implantation): 90 days
- day of 50% mortality from lung metastasis (from tumor excision): 68 days
- effect on local tumor growth (twice weekly at the dose of 100 μg, in PBS, subcutaneously): inhibited local tumor growth
